“Also recorded” adds a separate entry of the source.
Key:
[1] = test system: β1 receptors of the heart versus β2 receptors (atrium / trachea); experiment: Cardioselectivity: antilog pA2 (atrium)-pA2 (trachea); assay type: cell-based, guinea pig; conditions: for Cardioselectivity antilog pA2 (A)-pA2 (T): antilog of pA2 (atrium) - pA2 (trachea), guinea pig; for cardioselectivity (in words): qualitative statement
Excerpt: Most commercial β-adrenolytics of similar structure influence both β1 and β2 receptors; that is, they inhibit the effect of the sympathetic nervous system on the heart as well as on the peripheral blood vessels or the bronchial muscles. Blocking of the β2 receptors leads to an increase in tonus of the smooth muscle with broncho spasms and increased resistance of the peripheral vessels. […] This is because β2 receptor-blocking substances are not to be administered in bronchial diseases (such as asthma) because of their broncho-constrictive action. However, treatment of […].
pA2 The strength of a beta-adrenoceptor blocker. Corresponds to the negative logarithm of the molar concentration of an antagonist which requires a doubling of the molar concentration of the agonist to achieve a given effect on isolated tissue. As test tissue are used the atrium and trachea of guinea pigs.
Cardioselectivity: antilog pA2 (atrium)-pA2 (trachea)

[2] = target: T1, beta-adrenoceptor (atrium) (Cavia porcellus, UniProt H0W3H1); experiment: pA2 as beta-adrenoceptor blocker on isolated guinea pig atrium; assay type: cell-based
T1 construct: As test tissue are used the atrium and trachea of guinea pigs; from tissue; host or cells: isolated guinea pig atrium
Excerpt: (§1) The terms used in Table 1 are defined as follows (from B. J. Clark: "Pharmacology of beta-adrenoceptor blocking agents" in "beta-Adrenoceptor blocking agents", P. R. Saxena and R. P. Forsyth edition. pA2 The strength of a beta-adrenoceptor blocker. Corresponds to the negative logarithm of the molar concentration of an antagonist which requires a doubling of the molar concentration of the agonist to achieve a given effect on isolated tissue. As test tissue are used the atrium and trachea of guinea pigs.

[3] = target: T2, beta-adrenoceptor (trachea) (Cavia porcellus, UniProt Q8K4Z4); experiment: pA2 as beta-adrenoceptor blocker on isolated guinea pig trachea; assay type: cell-based
T2 construct: As test tissue are used the atrium and trachea of guinea pigs; from tissue; host or cells: isolated guinea pig trachea
Excerpt: as §1

[4] = test system: beta-agonistic action (heart frequency); experiment: Intrinsic sympathomimetic activity (ISA): increase of heart frequency in reserpinized rats relative to isoprenaline; assay type: in vivo, rat; conditions: for ISA % isoprenaline action: increase of heart frequency, reserpinized rats, isoprenaline maximum = 100%
Description: ISA: "Intrinsic sympathomimetic activity" (betaa -agonistic action). The percent increase of the heart frequency which is induced by a substance, referred to the maximum reaction of isoprenaline (100%). The measurements are carried out on reserpinolized rats which no longer show a sympathic tonus.

beta-adrenolytic action = experiment: Half-life of the beta-adrenolytic action in rabbits after i.v. application; assay type: in vivo, rabbit; conditions: for t1/2 of beta-adrenolytic action: rabbits, i.v., time at which action has decreased to one half
Excerpt: […] : Time at which the beta-adrenolytic action of a substance in rabbits after i.v. application has decreased to one half.

T2 sequence (Q8K4Z4 whole entry): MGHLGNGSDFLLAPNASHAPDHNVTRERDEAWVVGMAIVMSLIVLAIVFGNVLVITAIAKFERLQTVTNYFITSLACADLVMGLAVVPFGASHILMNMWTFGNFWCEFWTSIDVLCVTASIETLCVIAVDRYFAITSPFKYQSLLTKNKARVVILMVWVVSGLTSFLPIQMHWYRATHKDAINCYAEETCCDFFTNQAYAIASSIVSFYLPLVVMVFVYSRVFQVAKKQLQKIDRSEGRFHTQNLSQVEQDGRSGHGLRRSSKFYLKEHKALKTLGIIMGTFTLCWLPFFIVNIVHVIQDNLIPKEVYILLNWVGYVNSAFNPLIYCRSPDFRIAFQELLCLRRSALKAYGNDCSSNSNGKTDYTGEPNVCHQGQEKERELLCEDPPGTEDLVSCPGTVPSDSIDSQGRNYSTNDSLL
T1 sequence (H0W3H1 1-470): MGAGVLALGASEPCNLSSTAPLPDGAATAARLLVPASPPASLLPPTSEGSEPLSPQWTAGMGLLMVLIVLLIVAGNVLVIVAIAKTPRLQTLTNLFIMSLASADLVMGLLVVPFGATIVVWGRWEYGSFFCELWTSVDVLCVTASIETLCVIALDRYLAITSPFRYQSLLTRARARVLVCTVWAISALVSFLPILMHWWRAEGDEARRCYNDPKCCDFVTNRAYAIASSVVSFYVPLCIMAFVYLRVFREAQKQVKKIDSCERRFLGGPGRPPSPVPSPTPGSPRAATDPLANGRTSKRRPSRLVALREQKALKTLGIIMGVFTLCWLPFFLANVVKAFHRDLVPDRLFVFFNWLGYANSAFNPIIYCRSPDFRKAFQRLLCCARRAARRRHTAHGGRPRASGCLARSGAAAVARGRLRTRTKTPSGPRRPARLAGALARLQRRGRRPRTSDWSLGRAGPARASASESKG

SMILES | Cardioselectivity antilog pA2 (A)-pA2 (T) [1] | cardioselectivity (in words) [1] | Kb [2] [µM] | Kb [3] [µM] | ISA % isoprenaline action [4] [%] | Local anesth. action (Local anesthetic action) | t1/2 of beta-adrenolytic action (beta-adrenolytic action) [h] | cardioselectivity (in words) ([1]; listed as (c)) | half-life (in words) (beta-adrenolytic action; qualitative statement) | agonistic / isoprenaline action (in words) ([4]; qualitative statement)
CCCCCCCC(=O)Nc1ccc(OCC(O)CNC(C)(C)C)c(-c2nnco2)c1 (centres unmarked) [Example 4, 2-[2-(2-hydroxy-3-tert.-butylamino-propoxy)-5-n-octanoylaminophenyl]-1,3,4 oxadiazole] | 32 | preferred for their selectivity | 0.0398 | 1.26 | 0 | 0 | – | – | – | –
CCCC(=O)Nc1ccc(OCC(O)CNC(C)C)c(C(C)=O)c1 (centres unmarked) [Comparison Substance 1, Acebutolol, reference compound] | – | – | – | 9.77 | 27 | present | 1.6 | – | – | –
CCCCCCC(=O)Nc1ccc(OCC(O)CNC(C)(C)C)c(-c2nnco2)c1 (centres unmarked) [Example 2, 2-[2-(2-hydroxy-3-tert.-butylamino-propoxy)-5-n-heptanoylaminophenyl]-1,3,4oxadiazole] | 25 | – | 0.0501 | 1.26 | 0 | 0 | 3.5 | preferred for their selectivity; also recorded: highly selectively active | particularly long half-life | –
CCCCCCCCCC(=O)Nc1ccc(OCC(O)CNC(C)(C)C)c(-c2nnco2)c1 (centres unmarked) [Example 6, 2-[2-(2-hydroxy-3-tert.-butylamino-propoxy)-5-n-decanoylamino-phenyl]-1,3,4oxadiazole] | 20 | preferred for their selectivity | 0.0794 | 1.58 | 0 | 0 | – | – | – | –
CCCCCCCCC(=O)Nc1ccc(OCC(O)CNC(C)(C)C)c(-c2nnco2)c1 (centres unmarked) [Example 5, 2-[2-(2-hydroxy-3-tert.-butylamino-propoxy)-5-n-nonanoylaminophenyl]-1,3,4 oxadiazole] | – | preferred for their selectivity | – | – | – | – | – | – | – | –
CC(=O)Nc1ccc(OCC(O)CNC(C)(C)C)c(-c2nnco2)c1 (centres unmarked) [Example 1, 2-[2-(2-hydroxy-3-tert.-butylamino-propoxy)-5-acetamido-phenyl]-1,3,4 oxadiazole] | 17 | preferred for their selectivity | 0.209 | 4.17 | 0 | 0 | 5 | – | – | –
CC(C)(C)NCC(O)COc1ccccc1-c1nnco1 (centres unmarked) [Comparison Substance 2, 2-[2-(2-hydroxy-3-tert.butylamino-propoxy)-phenyl]-1,3,4-oxadiazole, reference compound] | 3 | – | 0.0501 | 0.158 | 79 | 0 | – | – | – | high isoprenaline action

— patent publication US4409232A, “Substituted oxadiazoles, method for the production thereof, compositions containing them and method of use thereof” (priority 1980, dated 1983)
